Results published in PubChem BioAssay AID1963965 (Molecular Pharmacology Branch, DTP, NCI, 2024).

Tested on: 996289-038-R-J1-PDC spheroid viability
Experiment: Anticancer human tumor 996289-038-R-J1-PDC patient-derived colon adenocarcinoma cell line growth inhibition [PI3K]
Details: spheroids with HUVEC and MSC; for IC50: curve of first compound; for viability, T/C: stronger effect = lower value
From the text: Combinatorial screen of targeted agents with the PI3K inhibitors inavolisib, alpelisib, duvelisib, and copanlisib in multi-cell type tumor spheroids
A high-throughput screen of multi-cell type tumor spheroids was designed to identify active combinations of targeted small molecules and PI3K pathway inhibitors. Complex spheroids include a stromal component modeled by human endothelial cells (HUVEC) and fibroblasts modeled by human mesenchymal stem cells (MSCs). The concentration ranges selected for each drug and investigational agent were based upon clinically achievable concentrations if the clinical Cmax of the agent was known.
Compounds. The drugs and investigational agents: inavolisib (NSC800729), alpelisib (NSC765974), duvelisib (NSC772469), copanlisib (NSC816437), ipatasertib (NSC767898), afuresertib (NSC778305), talazoparib (NSC767125), sapanisertib (NSC764658), selumetinib (NSC741078), tovorafenib (DAY101, NSC766906), vemurafenib (NSC761431), ravoxertinib (NSC781343), sotorasib (NSC818433), MRTX1133 (NSC 836407), abemaciclib (NSC 768073), palbociclib (NSC758247), venetoclax (NSC 766270), SY5609 (NSC837396), enzalutamide (NSC755605), and darolutamide (NSC825331), were obtained from the National Cancer Institute (NCI) Developmental Therapeutics Program Chemical Repository. The FDA-approved anticancer drug set is available from the NCI Developmental Therapeutics Program. […] The stock solutions were prepared in dimethyl sulfoxide (DMSO, Sigma-Aldrich, St. Louis, MO, cat. D2650) at 800-fold the tested concentration and stored at -70 degrees C prior to their use. All drugs and investigational agents were tested over a range starting from a high concentration at or near the clinical Cmax and decreasing in half-log increments. If the clinical Cmax for an agent had not been determined, the highest concentration tested was 10 microM.
Cell Culture. All cells were maintained in an incubator at 37 degrees C and 5% CO2 with 95% humidity. The PDC lines were cultured according to standard operating procedures established by the NCI PDMR (https://pdmr.cancer.gov/sops/default.htm). All PDCs were thawed and cultured in Matrigel-coated flasks prepared with a working solution of 1X Ham's F-12 nutrient mix, without supplementation (Invitrogen, Waltham, MA, cat. 11765054), 100 U/mL penicillin-streptomycin (Invitrogen, cat. 15140122), and 2.5% Matrigel (Corning Inc., Corning, NY, cat. 354248) for the first three passages. The 354836-022-R-J1-PDC, 475296-252-R-J1-PDC, and 997726-040-R-J2-PDC lines were cultured in 6A media, which includes advanced DMEM/F-12 (Thermo Fisher Scientific, cat. 12634028), 10 mM HEPES (Thermo Fisher Scientific, cat. 15630080), 1X GlutaMAX supplement (Thermo Fisher Scientific, cat. 35050061), 0.1 mg/mL primocin (InvivoGen, San Diego, CA, cat. ant-pm-2), 10% defined fetal bovine serum, heat inactivated (HyClone Laboratories Inc., Logan, UT, cat. SH30070.03HI), 50% L-WRN conditioned media (ATCC, cat. CRL-3276), 1.25 mM N-Acetyl-L-cysteine (Sigma-Aldrich, cat. A9165), 10 mM nicotinamide (Sigma-Aldrich, cat. N0636), 1X B-27 supplement (Thermo Fisher Scientific, cat. 17504044), 1X N-2 supplement (Thermo Fisher Scientific, cat. 17502048), and 10 microM Y-27632 dihydrochloride (Tocris Bioscience, Bristol, United Kingdom, cat. 1254). The 624824-186-R-J2-PDC line was cultured in 6C/Colon 1B media, which includes all 6A media components plus 50 ng/mL human EGF recombinant protein (Thermo Fisher Scientific, cat. PHG0311). […]
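Note: spheroids exposed to compounds for seven days before viability read.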
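Throughout, for viability, T/C: luminescence used as a proxy for viable cell amount; percent viability relative to DMSO vehicle control as 100%.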

## CNC(=O)c1ccc(N2C(=S)N(c3ccc(C#N)c(C(F)(F)F)c3)C(=O)C2(C)C)cc1F + CC(Nc1ccc2c(c1)OCCn1cc(N3C(=O)OCC3C(F)F)nc1-2)C(N)=O
Second compound 0.00316 µM
  IC50: > 10 µM
Second compound 0.01 µM
  IC50: > 10 µM
Second compound 0.0316 µM
  IC50: > 10 µM
Second compound 0.1 µM
  IC50: > 10 µM
Second compound 0.316 µM
  IC50: > 10 µM
Second compound 1 µM
  IC50: > 10 µM
Second compound 0.00316 µM, first compound 0.0316 µM
  viability, T/C: 82.9%
Second compound 0.00316 µM, first compound 0.1 µM
  viability, T/C: 95.5%
Second compound 0.00316 µM, first compound 0.316 µM
  viability, T/C: 103%
Second compound 0.00316 µM, first compound 1 µM
  viability, T/C: 93.1%
Second compound 0.00316 µM, first compound 3.16 µM
  viability, T/C: 89%
Second compound 0.00316 µM, first compound 10 µM
  viability, T/C: 110%
Second compound 0.01 µM, first compound 0.0316 µM
  viability, T/C: 100%
Second compound 0.01 µM, first compound 0.1 µM
  viability, T/C: 88.6%
Second compound 0.01 µM, first compound 0.316 µM
  viability, T/C: 100%
Second compound 0.01 µM, first compound 1 µM
  viability, T/C: 88.2%
Second compound 0.01 µM, first compound 3.16 µM
  viability, T/C: 98.2%
Second compound 0.01 µM, first compound 10 µM
  viability, T/C: 102%
Second compound 0.0316 µM, first compound 0.0316 µM
  viability, T/C: 98.3%
Second compound 0.0316 µM, first compound 0.1 µM
  viability, T/C: 81.9%
Second compound 0.0316 µM, first compound 0.316 µM
  viability, T/C: 80.1%
Second compound 0.0316 µM, first compound 1 µM
  viability, T/C: 87.9%
Second compound 0.0316 µM, first compound 3.16 µM
  viability, T/C: 92.1%
Second compound 0.0316 µM, first compound 10 µM
  viability, T/C: 86.4%
Second compound 0.1 µM, first compound 0.0316 µM
  viability, T/C: 79.4%
Second compound 0.1 µM, first compound 0.1 µM
  viability, T/C: 85.4%
Second compound 0.1 µM, first compound 0.316 µM
  viability, T/C: 80.5%
Second compound 0.1 µM, first compound 1 µM
  viability, T/C: 77.8%
Second compound 0.1 µM, first compound 3.16 µM
  viability, T/C: 92.9%
Second compound 0.1 µM, first compound 10 µM
  viability, T/C: 72%
Second compound 0.316 µM, first compound 0.0316 µM
  viability, T/C: 65.1%
Second compound 0.316 µM, first compound 0.1 µM
  viability, T/C: 70.8%
Second compound 0.316 µM, first compound 0.316 µM
  viability, T/C: 73.3%
Second compound 0.316 µM, first compound 1 µM
  viability, T/C: 74.2%
Second compound 0.316 µM, first compound 3.16 µM
  viability, T/C: 70.3%
Second compound 0.316 µM, first compound 10 µM
  viability, T/C: 64%
Second compound 1 µM, first compound 0.0316 µM
  viability, T/C: 55.5%
Second compound 1 µM, first compound 0.1 µM
  viability, T/C: 59.3%
Second compound 1 µM, first compound 0.316 µM
  viability, T/C: 60.4%
Second compound 1 µM, first compound 1 µM
  viability, T/C: 61.5%
Second compound 1 µM, first compound 3.16 µM
  viability, T/C: 51.9%
Second compound 1 µM, first compound 10 µM
  viability, T/C: 53.5%
